Assay results taken from patent EP0768085A1, “ANTIBACTERIAL AGENT” (DAIICHI PHARMACEUTICAL CO., LTD., priority 1994, dated 1996).
Converted amounts (≈) assume the structure as drawn.

Key:
Type in all cases: cell-based
[1] = tested on: Bordetella bronchiseptica (SM2-4); assay: Antibacterial activity (IC), broth microplate as in Example 4 (Example 7, Table 42); conditions: 18 h
Experimental: (§1) A suitable amount of a sample was dissolved in dimethylsulfoxide (DMSO), and the resultant solution was diluted with the same amount of sterilized distilled water to prepare a bulk sample of 1,000 µg/ml. Mueller-Hinton broth (product of DIFCO) was dispensed into each well of 96-well microplate. Thereafter, the bulk specimen was added to the first well of a row, and successively diluted (10-fold each time) with sterilized distilled water. Separately, a bacterial cell suspension for the test (Staphylococcus aureus 209-P) which had been cultured in the above-mentioned broth overnight at 37°C was inoculated to each well so that the final inoculation amount of 10^6 CFU/ml was attained. The final concentrations of the samples were 100, 10, and 1 µg/ml.
(§2) The antibacterial action was evaluated by the inhibitory concentration (hereinafter abbreviated as IC) at which propagation of the bacteria cultured at 37°C for 18 hours was inhibited. Inhibition was determined by the turbidity of the medium. The expressions "IC≤100", "≤10", and "≤1" indicate that MIC-equivalent values obtained at the succesive […] dilution of the sample are 100-10 µg/ml, 10-1 µg/ml, and not more than 1 µg/ml, respectively. […] (In the subsequent Examples, the same rule applies correspondingly.) Table 39
In a manner similar to that described in Example 4, antibacterial activity of the invention compound was determined. The bacterium used for the test was Bordetella bronchiseptica (SM2-4).

[2] = tested on: Pasteurella multocida (Kobe-6); assay: Antibacterial activity (IC), broth microplate as in Example 4 (Example 6, Table 41); conditions: 18 h, origin pig
Experimental: as §1, §2
In a manner similar to that described in Example 4, antibacterial activity of the invention compound was determined. The bacterium used for the test was Pasteurella Kobe-6 (origin: pig; Pasteurella multocida).

[3] = tested on: Staphylococcus aureus TI-1; assay: Antibacterial activity (IC), broth microplate as in Example 4 (Example 5, Table 40); conditions: TI1, 18 h
Experimental: as §1, §2
In a manner similar to that described in Example 4, antibacterial activity of the invention compound was determined. The bacterium used for the test was Staphylococcus aureus TI-1.

[4] = tested on: Staphylococcus aureus 209-P; assay: Antibacterial activity (IC), Mueller-Hinton broth, 96-well microplate (Example 4, Table 39); conditions: 37°C, 18 hours
Experimental: as §1, §2

Row | MIC [1] [µg/mL] | MIC [2] [µg/mL] | MIC [3] [µg/mL] | MIC [4] [µg/mL] | Structure (SMILES)
1 | 10 to 100 (≈ 21.1 to 211 µM) | 10 to 100 (≈ 21.1 to 211 µM) | 1 to 10 (≈ 2.11 to 21.1 µM) | 10 to 100 (≈ 21.1 to 211 µM) | Cc1cccc(C(C#N)C(=O)C(C)Oc2ccc(Oc3ncc(C(F)(F)F)cc3Cl)cc2)c1 (stereo not shown) [compound 16]
2 |  | 10 to 100 (≈ 20.4 to 204 µM) | 10 to 100 (≈ 20.4 to 204 µM) | 10 to 100 (≈ 20.4 to 204 µM) | COc1cccc(C(C#N)C(=O)C(C)Oc2ccc(Oc3ncc(C(F)(F)F)cc3Cl)cc2)c1 (stereo not shown) [compound 17]
3 |  | 10 to 100 (≈ 20.1 to 201 µM) | 1 to 10 (≈ 2.01 to 20.1 µM) | 10 to 100 (≈ 20.1 to 201 µM) | CC(Oc1ccc(Oc2ncc(Cl)cc2Cl)cc1)C(=O)C(C#N)c1nc(Cl)cc(Cl)n1 (stereo not shown) [compound 20]
4 |  | 10 to 100 (≈ 18.8 to 188 µM) | 1 to 10 (≈ 1.88 to 18.8 µM) | 1 to 10 (≈ 1.88 to 18.8 µM) | CC(Oc1ccc(Oc2ccc(C(F)(F)F)cc2Cl)cc1)C(=O)C(C#N)c1nc(Cl)cc(Cl)n1 (stereo not shown) [compound 22]
